Measured values taken from patent US20260138961A1, “MODULATORS OF MITOCHONDRIAL DNA REPLICATION” (Pretzel Therapeutics, Inc., priority 2022, published 2026).

target: T1, human POLγ 3′-5′ exonuclease activity (Homo sapiens, UniProt P54098); experiment: Exonuclease inhibition assay with human POLγ (SYBR Green I fluorescence); format: biochemical; conditions: POLγA 1 nM, POLγB 1.3 nM, 5 nM exonuclease template, no dNTPs, 37° C. 2.5 hours
T1 sequence (P54098 1-1239): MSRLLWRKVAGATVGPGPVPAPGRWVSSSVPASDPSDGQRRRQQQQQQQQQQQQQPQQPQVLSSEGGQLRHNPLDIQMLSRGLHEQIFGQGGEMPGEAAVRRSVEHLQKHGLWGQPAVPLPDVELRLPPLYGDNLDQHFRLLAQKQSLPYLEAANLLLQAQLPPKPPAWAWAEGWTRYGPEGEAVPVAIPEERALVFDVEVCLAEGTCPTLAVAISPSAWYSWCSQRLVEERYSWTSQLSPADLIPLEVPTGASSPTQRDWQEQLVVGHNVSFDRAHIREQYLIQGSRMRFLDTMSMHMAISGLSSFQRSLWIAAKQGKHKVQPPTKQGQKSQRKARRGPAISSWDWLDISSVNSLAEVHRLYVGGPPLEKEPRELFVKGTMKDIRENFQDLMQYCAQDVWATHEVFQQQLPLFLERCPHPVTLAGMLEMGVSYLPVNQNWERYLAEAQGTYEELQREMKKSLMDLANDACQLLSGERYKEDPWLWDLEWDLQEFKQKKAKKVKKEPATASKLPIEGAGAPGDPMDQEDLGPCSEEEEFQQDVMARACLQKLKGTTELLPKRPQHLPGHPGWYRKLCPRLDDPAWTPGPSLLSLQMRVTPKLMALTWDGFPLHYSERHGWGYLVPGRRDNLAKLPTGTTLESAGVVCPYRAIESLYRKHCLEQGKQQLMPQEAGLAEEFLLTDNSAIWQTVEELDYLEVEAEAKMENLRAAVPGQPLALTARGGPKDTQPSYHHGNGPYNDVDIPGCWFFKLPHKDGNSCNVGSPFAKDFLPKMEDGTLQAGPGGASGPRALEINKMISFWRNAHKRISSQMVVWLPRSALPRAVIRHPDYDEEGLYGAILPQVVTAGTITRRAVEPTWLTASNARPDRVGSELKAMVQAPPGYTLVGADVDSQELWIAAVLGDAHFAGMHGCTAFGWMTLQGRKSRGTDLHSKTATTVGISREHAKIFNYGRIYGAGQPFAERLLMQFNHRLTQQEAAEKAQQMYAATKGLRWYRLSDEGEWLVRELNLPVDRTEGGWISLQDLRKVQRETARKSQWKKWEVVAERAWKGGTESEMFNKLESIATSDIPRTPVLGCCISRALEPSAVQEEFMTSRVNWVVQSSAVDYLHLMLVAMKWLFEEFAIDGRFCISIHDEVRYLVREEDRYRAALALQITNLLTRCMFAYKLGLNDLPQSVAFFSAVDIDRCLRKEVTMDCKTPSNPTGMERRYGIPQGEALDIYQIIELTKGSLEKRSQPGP
T1 sequence (Q9UHN1 1-485 partner): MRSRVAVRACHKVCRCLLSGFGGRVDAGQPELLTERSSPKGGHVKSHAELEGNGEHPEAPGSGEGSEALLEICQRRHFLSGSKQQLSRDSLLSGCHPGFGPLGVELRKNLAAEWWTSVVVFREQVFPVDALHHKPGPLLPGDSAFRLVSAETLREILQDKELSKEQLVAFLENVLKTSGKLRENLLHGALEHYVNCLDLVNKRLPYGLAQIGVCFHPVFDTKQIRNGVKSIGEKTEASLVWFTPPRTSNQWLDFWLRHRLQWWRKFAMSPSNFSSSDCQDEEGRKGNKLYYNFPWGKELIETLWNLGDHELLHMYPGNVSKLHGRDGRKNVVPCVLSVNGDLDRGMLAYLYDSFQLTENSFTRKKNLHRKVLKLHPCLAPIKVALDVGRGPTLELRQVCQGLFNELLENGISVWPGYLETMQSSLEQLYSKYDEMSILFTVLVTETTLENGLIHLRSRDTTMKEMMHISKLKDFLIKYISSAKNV
Protocol: Exonuclease inhibition assay with human POLγ.
The ability of small molecules to inhibit the 3′-5′ exonuclease activity of POLγ was analyzed in a quantitative fluorescence SYBR Green I assay with fluorescence intensity (FI) readout.
Human POLγ was incubated with a linear, partially double-stranded template containing an 85 base pair double-stranded DNA stretch and a 15 nucleotides long single-stranded 5′-tail (hereafter referred to as the “exonuclease template”). […] When bound to double-stranded DNA, SYBR Green I fluorescence increases by up to 100-fold. In the absence of deoxynucleotide triphosphates (dNTPs), the exonuclease activity of POLγ degrades the 85-mer strand, which leads to the formation of single-stranded DNA (ssDNA) and decreased fluorescent intensity. The assay was performed in a 384-well plate format.
The exonuclease template used was generated by hybridization of a 100 nucleotides long, single-stranded DNA molecule with an inverted dT at the 3′-end (5′-TTTTTTTTTATCCGGGCTCGTTATCTAAGCTGCTCTTGGTAGGCATTGACGTCCATACTGCAAATTCAGCTCTGTGCAGTTAGGCAGGAGTCTACAAGC invT-3′) to an 85 nucleotides long single-stranded DNA molecule (5′-AGCTTGTAGACTCCTGCCTAACTGCACAGAGCTGAATTTGCAGTATGGACGTCAATGCCTACCAGAGCAGCTTAGATAACGAGC-3′), using a Bio-Rad T100 Thermal Cycler. The inverted dT is characterized by a 3′-3′ linkage, which inhibits both degradation of the 3′-5′ exonuclease activity and extension by DNA polymerases.
POLγ is an heterotrimer of one POLγA subunit (harboring exonuclease and DNA polymerase activities) and two accessory POLγB subunits. Proteins used in the exonuclease assay were POLγA (NP_002684) and POLγB (NP_009146).
The protein mixture used in the assays contained POLγA (1 nM), POLγB (1.3 nM, concentration calculated as a dimer), 25 mM Tris-HCl (pH 8.0), 0.1 mg/mL bovine serum albumin, 1 mM Bond-Breaker TCEP solution (pH 7) [Thermo Fisher], 25 mM NaCl, and 0.02% Triton X-100.
The DNA template mixture used in the assay contained 5 nM of the exonuclease template, 25 mM Tris-HCl (pH 8.0), 10 mM MgCl2, 0.1 mg/mL bovine serum albumin, 1 mM Bond-Breaker TCEP solution [Thermo Fisher], and 0.02% Triton X-100.
Microplates with compounds (0.1 μL in each well) to be tested in the assay were prepared from 10 mM compound stocks in 100% DMSO, and equal amounts of DMSO without any compound were added to positive and negative control wells.
The protein mixture containing POLγ was dispensed (5 μL in each well) into compound plates and incubated at 37° C. for 15 minutes to allow compound binding to the POLγ complex. After incubation, 5 μL of the DNA template mixture was dispensed into each well. The plates were incubated at 37° C. for 2.5 hours.
During incubation, a combined stop buffer and detection reagent solution was prepared. The buffer contained 25 mM EDTA (pH 8.0), 0.02% Triton X-100, and SYBR Green I [Invitrogen] diluted 10,000× (for fluorescent readout). EDTA will stop the enzymatic reaction by chelating magnesium ions.
After the 2.5-hour incubation period, the SYBR Green I solution was added (10 μL) to the screening plates and the plates were incubated at room temperature in the dark for 20 minutes before the fluorescent signal was read between […] on a BMG Pherastar microtiter plate reader.

IC50 [µM] | Compound
2 | Cc1cc(S(=O)(=O)Nc2cccc(C(=O)N3CCCC[C@H]3C)c2)c(C)cc1Cl [Example 9, (R)-4-chloro-2,5-dimethyl-N-(3-(2-methylpiperidine-1-carbonyl)phenyl)benzenesulfonamide]
12 | Cc1cc(S(=O)(=O)Nc2cccc(-c3nccs3)c2)c(C)cc1Cl [Example 16, 4-chloro-2,5-dimethyl-N-(3-(thiazol-2-yl)phenyl)benzenesulfonamide]
81 | Cc1cc(S(=O)(=O)Nc2cccc(-c3ccn(C)n3)c2)c(C)cc1Cl [Example 18, 4-chloro-2,5-dimethyl-N-(3-(1-methyl-1H-pyrazol-3-yl)phenyl)benzenesulfonamide]
0.8 | Cc1cc(S(=O)(=O)Nc2cccc(C(=O)N3CCC[C@H]3C)c2)c(C)cc1Cl [Example 10, (R)-4-chloro-2,5-dimethyl-N-(3-(2-methylpyrrolidine-1-carbonyl)phenyl)benzenesulfonamide]
> 100 | Cc1cc(S(=O)(=O)Nc2cccc(C(=O)NCc3ccccc3)c2)c(C)cc1Cl [Example 11, N-benzyl-3-((4-chloro-2,5-dimethylphenyl)sulfonamido)benzamide]
3 | Cc1ccc(C)c(S(=O)(=O)Nc2cccc(C(=O)N3CCCC[C@H]3C)c2)c1 [Example 5, (R)-2,5-dimethyl-N-(3-(2-methylpiperidine-1-carbonyl)phenyl)benzenesulfonamide]
> 100 | Cc1cc(S(=O)(=O)Nc2cccc(-c3ncco3)c2)c(C)cc1Cl [Example 17, 4-chloro-2,5-dimethyl-N-(3-(oxazol-2-yl)phenyl)benzenesulfonamide]
10 | Cc1ccc(C)c(S(=O)(=O)Nc2cccc(C(=O)N3CCCCC3)c2)c1 [Example 3, 2,5-dimethyl-N-(3-(piperidine-1-carbonyl)phenyl)benzene sulfonamide]
48 | Cc1ccc(C)c(S(=O)(=O)Nc2cccc(C(=O)NCC3CC3)c2)c1 [Example 4, N-(cyclopropylmethyl)-3-((2,5-dimethylphenyl)sulfonamido)benzamide]
5 | Cc1cc(S(=O)(=O)Nc2cccc(C(=O)N(C)C)c2)c(C)cc1Cl [Example 12, 3-((4-chloro-2,5-dimethylphenyl)sulfonamido)-N,N-dimethylbenzamide]
9 | Cc1ccc(C)c(S(=O)(=O)Nc2cccc(C(=O)N[C@@H](C)C3CC3)c2)c1 [Example 8, (S)-N-(1-cyclopropylethyl)-3-((2,5-dimethylphenyl)sulfonamido)benzamide]
6 | Cc1cc(S(=O)(=O)Nc2ccc3c(c2)CC(=O)N3)c(C)cc1Cl [Example 185, 4-chloro-2,5-dimethyl-N-(2-oxoindolin-5-yl)benzenesulfonamide]
6 | Cc1cc(S(=O)(=O)Nc2cc(F)cc(C(=O)N3CCC[C@H]3C)c2)c(C)cc1Cl [Example 13, (R)-4-chloro-N-(3-fluoro-5-(2-methylpyrrolidine-1-carbonyl)phenyl)-2,5-dimethylbenzenesulfonamide]
1 | Cc1ccc(C)c(S(=O)(=O)Nc2cccc(C(=O)N3CCOCC3C#N)c2)c1 (stereo not shown) [Example 7, N-(3-(3-cyanomorpholine-4-carbonyl)phenyl)-2,5-dimethylbenzenesulfonamide]
12 | Cc1ccc(C)c(S(=O)(=O)Nc2cccc(C(=O)N3CCCC[C@@H]3C)c2)c1 [Example 6, (S)-2,5-dimethyl-N-(3-(2-methylpiperidine-1-carbonyl)phenyl)benzenesulfonamide]
4 | Cc1ccc(C)c(S(=O)(=O)Nc2cccc(C(=O)N3CCCCC3C#N)c2)c1 (stereo not shown) [Example 2, N-(3-(2-cyanopiperidine-1-carbonyl)phenyl)-2,5-dimethylbenzenesulfonamide]
8 | Cc1cc(S(=O)(=O)Nc2cccc(-c3nccn3C)c2)c(C)cc1Cl [Example 19, 4-chloro-2,5-dimethyl-N-(3-(1-methyl-1H-imidazol-2-yl)phenyl)benzenesulfonamide]
3 | Cc1cc(S(=O)(=O)Nc2cccc(C(=O)N(C)C(C)CO)c2)c(C)cc1Cl (single isomer, unassigned) [Example 14, 3-((4-chloro-2,5-dimethylphenyl)sulfonamido)-N-(1-hydroxypropan-2-yl)-N-methylbenzamide]

Compound | IC50 [µM]
(R)-2,5-dimethyl-N-(3-(3-methylmorpholine-4-carbonyl)phenyl)benzenesulfonamide [Example 1] | 7
